From ChEMBL document CHEMBL1201862, “PubChem BioAssay data set” (2004)
Active and inactive are the calls of the source.

Key:
Paired box protein Pax-8 = Paired box protein Pax-8 (Homo sapiens, UniProt Q06710); assay: PAX8 transcriptional activity inhibition in RMG-I – RMG-I cells, luciferase, cherry-pick, dose response (AID 687027); format: functional, cell-based;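 note: luciferase reporter driven by Pax8 target thyroperoxidase promoter measured by SteadyGlo luminescence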
[1] = toxicity toward immortalized ovarian surface epithelium – cell-based, plate reader, dry powder samples, cytotoxicity control for PAX8 inhibitor project, dose response (AID 743045); format: functional
[2] = OVCAR-3 cell viability loss – plate reader, dry powder samples, PAX8 inhibitor project, dose response (AID 743044); format: functional, cell-based
[3] = IGROV1 cell killing – plate reader, dry powder samples, PAX8 inhibitor project, dose response (AID 743043); format: functional, cell-based; details: IGROV-1
[4] = OVCAR8 cell viability loss – plate reader, dry powder samples, PAX8 project, dose response (AID 743197); format: functional, cell-based; details: OVCAR-8
[5] = Luminescence-based cell-based high throughput dose response assay to identify activators of the DAF-12 from the parasite S. stercoralis (ssDAF-12).; format: functional
[6] = target: T1, Oxysterols receptor LXR-beta (Homo sapiens, UniProt P55055); assay: LXR agonists, Gal4 luciferase reporter, dose response, counter-screen for ssDAF-12 agonist project, cell-based, luminescence, HEK293, S. stercoralis campaign (AID 720737); format: functional; details: read-out: IC50 (the source's name)
T1 sequence (P55055 whole entry): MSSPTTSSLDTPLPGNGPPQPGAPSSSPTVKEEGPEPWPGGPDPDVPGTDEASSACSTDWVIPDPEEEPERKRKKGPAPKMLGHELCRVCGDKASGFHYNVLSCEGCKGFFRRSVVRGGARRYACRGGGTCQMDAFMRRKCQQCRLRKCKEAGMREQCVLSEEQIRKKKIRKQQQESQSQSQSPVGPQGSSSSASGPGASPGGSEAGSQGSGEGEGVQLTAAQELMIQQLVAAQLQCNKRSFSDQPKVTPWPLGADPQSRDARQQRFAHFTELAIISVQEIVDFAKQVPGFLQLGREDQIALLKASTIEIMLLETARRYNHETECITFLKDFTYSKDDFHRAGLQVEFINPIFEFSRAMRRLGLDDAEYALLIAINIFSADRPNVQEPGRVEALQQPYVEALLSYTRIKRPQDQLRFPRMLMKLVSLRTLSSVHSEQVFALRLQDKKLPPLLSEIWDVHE

[7] = target: T1, Oxysterols receptor LXR-beta; format: functional, cell-based
cells [8] = assay: cells
[9] = viability loss in HepG2 hepatoma cells – cell-based, ATP luminescence, cherry-pick, activator set 2, cytotoxicity control, dose response (AID 1053143); format: functional
[10] = ATP-based viability loss in HepG2 cells – cell-based, CellTiter-Glo luminescence, dry powder, set 3, cytotoxicity control, dose response (AID 720594); format: functional
[11] = ATP-based viability loss in HEK293T cells – cell-based, CellTiter-Glo luminescence, dry powder, set 2, cytotoxicity control, dose response (AID 720595); format: functional; details: HEK293
[12] = ATP-based viability loss in HeLa cells – cell-based, CellTiter-Glo luminescence, dry powder, set 2, cytotoxicity control, dose response (AID 720593); format: functional
[13] = A2780 cell killing – plate reader, dry powder samples, cytotoxicity control, dose response (AID 743046); format: functional, cell-based
[14] = target: G-protein coupled receptor 183 (Homo sapiens, UniProt P32249); assay: SAR confirmation of small molecule antagonists of the EBI2 receptor via a luminescent beta-arrestin assa.; format: functional
[15] = target: E3 ubiquitin-protein ligase Mdm2 (Homo sapiens, UniProt Q00987); assay: MDM2-luc reporter signal enhancers, multi-concentration potency testing, MDM2 ubiquitin-protein ligase inhibitor program, whole-cell format, luminescence detection, 384-well microplate (AID 1394); format: functional;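 note: MDM2 E3 inhibitors raise luminescence so EC50 is for signal enhancement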
Vero = assay: cells; format: functional; details: Chlorocebus sabaeus
cells [16] = assay: cells; remark: listed apart in the source
cells [17] = details: HEK293;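 note: cells exposed to compound for 48 hours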
[18] = IC50 of Artemis nuclease activity blockers – biochemical, fluorescence intensity, dose response (AID 720701); format: functional;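 note: Artemis endonuclease enzyme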
Cryptococcus neoformans = assay: PubChem AID 686997; format: functional, organism-based
HEK293 = assay: viability loss in HEK293T cells – cell-based, ATP luminescence, cherry-pick samples, cytotoxicity control, dose response (AID 687005); format: functional; details: Homo sapiens;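 note: cells exposed to compound for 48 hours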
[19] = HEK293 Cytotoxicity Assay Measured in Cell-Based System Using Plate Reader - 7071-01_Inhibitor_Dose_CherryPick_Activity_Set2.; format: functional
[20] = viability loss in THP-1 monocytes – THP-1 cells, cytotoxicity control for Vif-APOBEC3G degradation inhibitor project, dose response (AID 1117359); format: functional; details: THP-1
[21] = target: T2, Low molecular weight phosphotyrosine protein phosphatase (Homo sapiens, UniProt P24666); assay: inhibition of LMPTP-A enzymatic activity – biochemical, OMFP substrate, fluorescence intensity, set 2, dose response (AID 743307); format: functional
T2 sequence (P24666 whole entry): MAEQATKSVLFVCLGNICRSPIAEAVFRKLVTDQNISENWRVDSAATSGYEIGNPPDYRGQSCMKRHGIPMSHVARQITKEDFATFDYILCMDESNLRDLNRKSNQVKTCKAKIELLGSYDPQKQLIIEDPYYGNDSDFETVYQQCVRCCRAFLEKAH

[22] = target: T2, Low molecular weight phosphotyrosine protein phosphatase; assay: inhibition of human LMPTP enzyme activity – biochemical, absorbance, pNPP substrate, LMPTP-A isoform, set 2, orthogonal assay, dose response (AID 743308); format: functional

Sequence of Paired box protein Pax-8 (Q06710 whole entry): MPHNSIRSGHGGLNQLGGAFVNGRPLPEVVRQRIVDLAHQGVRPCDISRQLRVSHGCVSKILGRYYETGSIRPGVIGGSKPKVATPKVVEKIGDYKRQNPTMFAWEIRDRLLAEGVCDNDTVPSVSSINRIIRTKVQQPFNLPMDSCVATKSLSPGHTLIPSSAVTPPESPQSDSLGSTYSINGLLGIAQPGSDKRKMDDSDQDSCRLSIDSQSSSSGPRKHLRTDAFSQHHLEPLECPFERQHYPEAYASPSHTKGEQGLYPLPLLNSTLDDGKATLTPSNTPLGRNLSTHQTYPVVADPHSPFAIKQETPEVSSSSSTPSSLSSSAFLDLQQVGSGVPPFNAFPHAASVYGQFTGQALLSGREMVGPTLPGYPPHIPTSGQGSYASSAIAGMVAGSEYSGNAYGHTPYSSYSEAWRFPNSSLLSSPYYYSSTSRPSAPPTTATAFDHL
Sequence of G-protein coupled receptor 183 (P32249 whole entry): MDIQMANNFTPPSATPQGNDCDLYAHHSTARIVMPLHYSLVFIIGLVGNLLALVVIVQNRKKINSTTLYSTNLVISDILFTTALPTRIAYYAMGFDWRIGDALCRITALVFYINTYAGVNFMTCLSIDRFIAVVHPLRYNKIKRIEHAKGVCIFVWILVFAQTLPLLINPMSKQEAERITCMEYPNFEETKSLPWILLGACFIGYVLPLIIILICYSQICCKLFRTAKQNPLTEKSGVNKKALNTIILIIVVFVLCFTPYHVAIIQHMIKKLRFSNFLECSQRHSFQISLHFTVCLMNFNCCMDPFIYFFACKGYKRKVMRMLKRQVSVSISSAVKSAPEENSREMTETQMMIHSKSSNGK
Sequence of E3 ubiquitin-protein ligase Mdm2 (Q00987 whole entry): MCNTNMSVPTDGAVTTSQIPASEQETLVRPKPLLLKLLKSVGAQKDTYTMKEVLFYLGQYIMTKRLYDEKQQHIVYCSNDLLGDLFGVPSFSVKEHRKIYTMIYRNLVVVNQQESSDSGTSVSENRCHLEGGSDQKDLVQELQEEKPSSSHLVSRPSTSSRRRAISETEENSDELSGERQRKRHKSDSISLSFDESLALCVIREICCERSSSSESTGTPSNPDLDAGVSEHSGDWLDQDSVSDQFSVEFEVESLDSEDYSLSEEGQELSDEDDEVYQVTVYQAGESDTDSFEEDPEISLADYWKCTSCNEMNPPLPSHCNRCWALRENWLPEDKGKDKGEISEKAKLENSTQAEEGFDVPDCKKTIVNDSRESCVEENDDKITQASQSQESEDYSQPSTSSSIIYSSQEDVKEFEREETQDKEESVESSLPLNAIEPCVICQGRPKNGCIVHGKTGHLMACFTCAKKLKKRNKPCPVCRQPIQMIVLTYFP

Which AC50 (Paired box protein Pax-8) does the source give for `Cc1ccc(S(=O)(=O)Nc2ccc3c(c2)C(=O)N([C@H](C)CO)C[C@@H](C)[C@@H](CN(C)Cc2ccc(C(F)(F)F)cc2)OCCCC[C@@H](C)O3)cc1` here?
Its AC50 is 5.57 µM (active).

And the AC50 [1]?
Its AC50 is 53.7 µM (active).

And the AC50 [2]?
Its AC50 is 36 µM (active).

What about the AC50 [3] of the same compound?
The AC50 was 54.4 µM (active).

What about the AC50 [4] of the same compound?
Its AC50 is 39.6 µM (active).

What does the source list for `O=[N+]([O-])c1ccc2oc(-c3cccc(O)c3)nc2c1`?
IC50 [5]: > 67.5 µM (inactive); EC50 [6]: > 67.5 µM (inactive); EC50 [7]: > 67.6 µM (inactive); EC50 (cells [8]): > 67.6 µM (inactive)

For `Cc1nc(-c2ccc(C(=O)Nc3ccc(F)cc3)cc2)cs1`, which AC50 [9] is on record?
Its AC50 is 26 µM (active).

Which AC50 [10] does the source give for `CSc1ccc(-c2nnc(NC(=O)c3ccc(S(=O)(=O)N4CCC(C)CC4)cc3)o2)cc1` here?
The AC50 was > 52 µM (inactive).

What about the AC50 [11] of the same compound?
The AC50 was 9.24 µM (active).

What about the AC50 [12] of the same compound?
Its AC50 is > 52 µM (inactive).

Which results are given for `COc1ccc(-c2ccc3c(c2)[C@@H]2[C@@H](CCN2C(=O)NC2CCCCC2)[C@@H](CO)N3C)cc1`?
AC50 (Paired box protein Pax-8): 14.5 µM (active); AC50 [13]: 0.292 µM (active); AC50 [4]: 37.8 µM (active)

With `O=C(/C=C/c1ccc(Br)cc1)N1CCN(C(=O)c2ccc(C(F)(F)F)cc2)CC1` as the compound, how does the IC50 [14] read?
The IC50 was 0.00188 µM (active).

Which EC50 [15] does the source give for `CCOC(=O)N1C/C(=C\c2ccccc2)C(=O)/C(=C/c2ccccc2)C1` here?
Its EC50 is 0.61 µM (active).

What about the CC50 (Vero) of the same compound?
Its CC50 is 23 µM (active).

Which AC50 (cells [16]) does the source give for `Cn1c2ccccc2c(=O)c2ccc(F)cc21` here?
The AC50 was 7.33 µM (active).

And the AC50 (cells [17])?
The AC50 was > 52 µM (inactive).

With `CCCCn1/c(=N/C(=O)c2ccc3c(c2)OCO3)c(C#N)cc2c(=O)n3cccc(C)c3nc21` as the compound, how does the IC50 [18] read?
Its IC50 is > 20 µM (inactive).

What does the source list for `COC(=O)C1=C(C)N(CC(C)C)C(=S)NC1c1ccc(F)cc1` (stereo not drawn)?
AC50 (Cryptococcus neoformans): > 84 µM (inactive); AC50 (HEK293): 40.3 µM (active); AC50 [19]: 40.3 µM (active)

With `CCC(C)(c1nnnn1-c1c(C)cccc1C)N(N=O)c1ccccc1Cl` (stereo not drawn) as the compound, how does the CC50 [20] read?
The CC50 was > 40 µM (active).

What does the source list for `c1ccc(-c2nc(NC3CCCCC3)c3ccccc3n2)cc1`?
IC50 [21]: 19.1 µM (active); IC50 [22]: > 80 µM (inactive)
